Test [1] has as its system angiotensin II (aortic blood vessel of rabbits). Put plainly: Antagonistic effect on angiotensin II (A II)-induced tension, aortic blood vessel of rabbits. The class given is cell-based. Particulars: Oryctolagus cuniculus, 0.25 h; for inhibition at 10 µM: 10^-5 M drug substance; for inhibition at 0.1 µM: 10^-7 M drug substance.
Description: Antagonistic effect of the compound (I) of the present invention on angiotensin II (hereinafter referred to briefly as "A II") (with aortic blood vessel of rabbits)
The blood-vessel preparation and reaction were done in accordance with the method as described in "European Journal of Pharmacology", 18, 316 (1972). […] [formula] where; T1 =Change in isometric tension of the blood vessel brought about by A II without a test drug substance (g)
Test [2] relates to angiotensin II-induced elevation of blood pressure. Put plainly: Inhibitory activity against angiotensin II-induced elevation of blood pressure in rats. The class given is in vivo, Male SD rats. The conditions noted are these: for inhibition in vivo at 0.3 mg/kg / inhibition in vivo at 0.5 mg/kg / inhibition in vivo at 1 mg/kg / inhibition in vivo at 0.1 mg/kg / inhibition in vivo at 0.03 mg/kg / inhibition in vivo at 3 mg/kg: Rattus norvegicus, iv; for inhibition in vivo at 0.5 mg/kg: 0.5 mg/kg intravenously; for inhibition in vivo at 1 mg/kg: 1.0 mg/kg intravenously; for inhibition in vivo at 0.03 mg/kg: 0.03 mg/kg intravenously; for inhibition in vivo at 3 mg/kg: 3.0 mg/kg intravenously.

The mark [3] stands for this setting: A II 4×10^-9 M, 15 minutes, read-out: Inhibition.
The mark [4] stands for this setting: 10^-6 M drug substance, A II 4×10^-9 M, 15 minutes, read-out: Inhibition.
[5] abbreviates: 10 min, 0.3 mg/kg intravenously, A II 20 ng/kg/min, 10 min, read-out: Inhibition (%), after 10 min.
Setting [6] is: 10 min, A II 20 ng/kg/min, 10 min, read-out: Inhibition (%), after 10 min.
Setting [7] is: 0.5 h, 0.3 mg/kg intravenously, A II 20 ng/kg/min, 30 min, read-out: Inhibition (%), after 30 min.
Where [8] appears, read: 0.5 h, A II 20 ng/kg/min, 30 min, read-out: Inhibition (%), after 30 min.
Setting [9] is: 1.5 h, 0.3 mg/kg intravenously, A II 20 ng/kg/min, 90 min, read-out: Inhibition (%), after 90 min.
[10] abbreviates: 1.5 h, A II 20 ng/kg/min, 90 min, read-out: Inhibition (%), after 90 min.
[11] abbreviates: 10 min, read-out: Inhibition (%), after 10 min.
The mark [12] stands for this setting: 0.5 h, read-out: Inhibition (%), after 30 min.
[13] abbreviates: 1.5 h, read-out: Inhibition (%), after 90 min.
[14] abbreviates: 10 min, 0.1 mg/kg intravenously, A II 20 ng/kg/min, 10 min, read-out: Inhibition (%), after 10 min.
[15] abbreviates: 0.5 h, 0.1 mg/kg intravenously, A II 20 ng/kg/min, 30 min, read-out: Inhibition (%), after 30 min.
Where [16] appears, read: 1.5 h, 0.1 mg/kg intravenously, A II 20 ng/kg/min, 90 min, read-out: Inhibition (%), after 90 min.

Read-outs that look alike come from different tables or passages of the source.

In the case of `O=C(O)Cc1c(Cl)nc(-c2ccccc2)n1Cc1ccc(Cl)cc1` [1-(4-chlorobenzyl)-4-chloro-2-phenylimidazole-5-acetic acid], the inhibition at 10 µM in test [1] (setting [3]) came to 25%. For the molecule `O=C(O)Cc1c(Cl)nc(-c2ccccc2)n1Cc1ccccc1F` [4-chloro-1-(2-fluorobenzyl)-2-phenylimidazole-5-acetic acid], the inhibition at 1 µM in test [1] (setting [4]) turned out to be 23%. On to `COc1cccc(Cn2c(-c3ccccc3)nc(Cl)c2CC(=O)O)c1` [4-chloro-1-(3-methoxybenzyl)-2-phenylimidazole-5-acetic acid], for which, in test [1] (setting [3]), the inhibition at 10 µM worked out at 73%.

As to `Cc1ccc(Cn2c(-c3ccccc3)nc(Cl)c2CC(=O)O)cc1` [4-chloro-1-(4-methylbenzyl)-2-phenylimidazole-5-acetic acid], the inhibition at 10 µM in test [1] (setting [3]) is 80%. As to `CCc1nc(Cl)c(CC(=O)O)n1Cc1ccccc1` [C2 H5 / H / H / H], the inhibition at 1 µM in test [1] (setting [4]) came out at 36%. With `Cc1nc(Cl)c(CC(=O)O)n1Cc1ccccc1` [CH3 / H / H / H], in test [1] (setting [3]), the inhibition at 10 µM worked out at 38%.

For the molecule `O=C(O)Cc1c(Cl)nc(-c2ccccc2)n1Cc1ccccc1Cl` [drawing 92], the inhibition at 10 µM in test [1] (setting [3]) is 90%. Same read-out and setting: the figure for `Nc1ccc(-c2nc(Cl)c(CC(=O)O)n2Cc2ccccc2)cc1` [drawing 101] is 50%; for `O=C(O)Cc1c(Cl)nc(-c2ccc(O)cc2)n1Cc1ccccc1` [drawing 103] it is 32%. The molecule `O=C(O)Cc1c(Cl)nc(-c2cc([N+](=O)[O-])c(Cl)c([N+](=O)[O-])c2)n1Cc1ccccc1` [drawing 108] returned an inhibition at 1 µM in test [1] of 82%. On to `CCCCOc1ccc(Cn2c(-c3ccccc3)nc(Cl)c2CC(=O)O)cc1` [drawing 121], for which the inhibition at 1 µM in test [1] (setting [4]) came out at 56%.

Turning to `COc1ccc(Cn2c(-c3ccccc3)nc(Cl)c2CC(=O)O)cc1C` [drawing 124, 4-chloro-1-(3-methyl-4-methoxybenzyl)-2-phenylimidazole-5-acetic acid], the inhibition at 1 µM in test [1] (setting [4]) amounted to 80%. Turning to `O=C(O)Cc1c(Cl)nc(-c2ccc(O)cc2)n1Cc1ccccc1` [drawing 132], the inhibition in vivo at 0.3 mg/kg in test [2] (setting [5]) was 10.7 ± 1.8%; in test [2] (setting [7]) it was 24.3 ± 2.3%; in test [2] (setting [9]), 11.7 ± 6%. The inhibition in vivo at 0.5 mg/kg in test [2] (setting [6]) is 14.8 ± 1.8%; in test [2] (setting [8]), 36 ± 3%; in test [2] (setting [10]), 35 ± 3.9%. Regarding `Nc1ccc(-c2nc(Cl)c(CC(=O)O)n2Cc2ccccc2)cc1` [drawing 133], the inhibition in vivo at 0.5 mg/kg in test [2] (setting [6]) was found to be 17.7 ± 1.2%; in test [2] (setting [8]) it was 45.3 ± 2.4%; in test [2] (setting [10]) it was 37 ± 8.6%. Turning to `O=C(O)Cc1c(Cl)nc(-c2ccccc2)n1Cc1ccccc1Cl` [drawing 134], the inhibition in vivo at 1 mg/kg in test [2] (setting [6]) is 11.8 ± 1.8%; in test [2] (setting [8]), 36.5 ± 4.5%; in test [2] (setting [10]), 32.3 ± 7%. Consider `O=C(O)Cc1c(Cl)nc(-c2cc([N+](=O)[O-])c(Cl)c([N+](=O)[O-])c2)n1Cc1ccccc1` [drawing 135], for which the inhibition in vivo at 0.1 mg/kg in test [2] (setting [11]) was determined as 22.5 ± 3.2%; in test [2] (setting [12]), 55 ± 7.5%; in test [2] (setting [13]) it was 55 ± 7.5%. The inhibition in vivo at 0.3 mg/kg amounted to 18% in test [2] (setting [11]), 72% in test [2] (setting [12]) and 72% in test [2] (setting [13]). On to `CCCCOc1ccc(Cn2c(-c3ccccc3)nc(Cl)c2CC(=O)O)cc1` [drawing 136], for which the inhibition in vivo at 0.03 mg/kg is 17% in test [2] (setting [6]), 46.5% in test [2] (setting [8]) and 40% in test [2] (setting [10]). Moreover, the inhibition in vivo at 3 mg/kg in test [2] (setting [6]) was 20%; in test [2] (setting [8]) it was 40%; in test [2] (setting [10]), 0%. Take `COc1ccc(Cn2c(-c3ccccc3)nc(Cl)c2CC(=O)O)cc1C` [drawing 137]: the inhibition in vivo at 0.5 mg/kg came out at 33 ± 15% in test [2] (setting [6]), 60 ± 18% in test [2] (setting [8]) and 62 ± 7% in test [2] (setting [10]). Turning to `CC(C)c1nc(Cl)c(CC(=O)O)n1Cc1ccccc1` [i-C3 H7 / H / H / H], the inhibition at 1 µM in test [1] (setting [4]) worked out at 41%.

With `CCCc1nc(Cl)c(CC(=O)O)n1Cc1ccccc1` [n-C3 H7 / H / H / H], in test [1] (setting [4]), the inhibition at 1 µM turned out to be 22%. The same measure, in the same setting: the figure for `CCCCc1nc(Cl)c(CC(=O)O)n1Cc1ccccc1OCC` [n-C4 H9 / 2-C2 H5 O / H / H, 2-Butyl-4-chloro-1-(2-ethoxybenzyl)imidazole-5-acetic acid] is 53%. Take `CCCCc1nc(Cl)c(CC(=O)O)n1Cc1ccccc1Cl` [n-C4 H9 / 2-Cl / H / H]: the inhibition at 0.1 µM in test [1] (A II 4×10^-9 M, 15 minutes) is 75%. In addition, the inhibition in vivo at 0.1 mg/kg in test [2] (setting [14]) came out at 38%; in test [2] (setting [15]), 100%; in test [2] (setting [16]), 86%.

Molecule `CCCCc1nc(Cl)c(CC(=O)O)n1Cc1ccccc1[N+](=O)[O-]` [n-C4 H9 / 2-NO2 / H / H] showed an inhibition at 0.01 µM in test [1] (10^-8 M drug substance, A II 4×10^-9 M, 15 minutes) of 30%. On to `CCCCc1nc(Cl)c(CC(=O)O)n1Cc1ccc(OC)c(C)c1` [n-C4 H9 / 3-CH3 / 4-CH3 O / H], for which, in test [1] (setting [4]), the inhibition at 1 µM came to 99%. Take `CCCCOc1ccc(Cn2c(CCCC)nc(Cl)c2CC(=O)O)cc1` [n-C4 H9 / 4-n-C4 H9 O / H / H]: the inhibition at 1 µM in test [1] (setting [4]) turned out to be 85%. As to `CCCCc1nc(Cl)c(CC(=O)O)n1Cc1ccccc1` [n-C4 H9 / H / H / H, 1-Benzyl-2-n-butyl-4-chloroimidazole-5-acetic acid], the inhibition at 1 µM in test [1] (setting [4]) amounted to 55%. The inhibition in vivo at 0.1 mg/kg came to 19.6 ± 1.5% in test [2] (setting [14]), 64.3 ± 15.3% in test [2] (setting [15]) and 60 ± 21.5% in test [2] (setting [16]). Moreover, the inhibition in vivo at 0.3 mg/kg in test [2] (setting [5]) was found to be 25%; in test [2] (setting [7]) it was 94%; in test [2] (setting [9]), 94%. `CCCCCc1nc(Cl)c(CC(=O)O)n1Cc1ccccc1Cl` [n-C5 H11 / 2-Cl / H / H] came in with an inhibition at 0.1 µM in test [1] (A II 4×10^-9 M, 15 minutes) of 57%. `CCCCCCc1nc(Cl)c(CC(=O)O)n1Cc1ccccc1Cl` [n-C6 H13 / 2-Cl / H / H] had an inhibition at 0.1 µM in test [1] (A II 4×10^-9 M, 15 minutes) of 84%. Take `CCCCCCc1nc(Cl)c(CC(=O)O)n1Cc1ccc(OC)c(C)c1` [n-C6 H13 / 3-CH3 / 4-CH3 O / H]: the inhibition at 1 µM in test [1] (setting [4]) turned out to be 100%. Regarding `CCCCCCc1nc(Cl)c(CC(=O)O)n1Cc1ccc(OCCCC)cc1` [n-C6 H13 / 4-n-C4 H9 O / H / H], in test [1] (setting [4]), the inhibition at 1 µM turned out to be 100%. Still for that read-out and setting: the figure for `CCCCCc1nc(Cl)c(CC(=O)O)n1Cc1ccccc1` [n-C 5 H11 / H / H / H] is 65%; for `CC(C)(C)c1nc(Cl)c(CC(=O)O)n1Cc1ccccc1` [t-C4 H9 / H / H / H] it is 10%. As for “A II: angiotensin II (hereinafter referred to briefly as "A II") (DRVYIHPF; Angiotensin-2; UniProt P01019 25-32, looked up) [reference compound]”, the “elevation of blood pressure after the infusion of A II, as compared with the one before the infusion” value in test [2] (A II 20 ng/kg/min continuous intravenous infusion, 75 cases, no test drug) amounted to 45.5±2.1 mmHg.

(Values after US4355040A, “Hypotensive imidazole-5-acetic acid derivatives” (Takeda Chemical Industries, Ltd., priority 1979, dated 1982).)
